Test results: patent US20110124086A1, “Hepatitis C Virus Culture System” (The Regents of the University of California, priority 2009, published 2011)

Experiments:
Format in all cases: cell-based, Hepatitis C virus
[1] = tested on: HCV of genotype 1b (CG1b); test: Antiviral activity of IFNα in Huh7 cells infected with FH-CG1bRbz hepatocyte-derived medium, HCV RNA by qRT-PCR; settings: IFNα 100 U/ml once, 48 hrs after infection, analysed after 24 hrs
Description: Huh7 cells were infected with hepatocyte-derived medium. Then, after 48 hrs, cells were treated with 0 or 100 U/ml of IFNα once and analyzed for HCV RNA by qRT-PCR after 24 hrs. N.D. indicates not detectable or below the level of detection.
Huh7 human hepatoma cells were transfected with in vitro-transcribed JFH1 RNA and cultured, as previously described (Choi et al. (2004) Hepatology 39:91-9). Telomerase-reconstituted primary human hepatocytes were transfected with pEF-CG1 bRbz/Neo, pEF-CG1 bGNDRbz/Neo, or control EF-driven vector alone as described for Huh7, and cell clones that are stably transfected with these constructs were selected and maintained in G418-containing medium (Invitrogen) (Wege et al. (2004) Gastroenterology 124:432-44). For virus infection, the extracellular medium from JFH1-transfected cells and CG1b transfected cell clones was cleared by low speed centrifugation at 5,000 rpm for 10 min and concentrated ˜10 fold by ultracentrifugation at 21,000 rpm for 6.5 hrs at 4° C. The medium was also pre-treated with RNase (and also with DNase for CG1b medium) for 30 min at room temperature prior to these centrifugation steps. Then, the concentrated virus samples were used to inoculate naïve Huh7 or Huh7.5 cells (Wakita et al. (2005) Nat. Med. 11:791-6). […]
(§1) HCV RNA was quantified by quantitative reverse transcriptase polymerase chain reaction (qRT-PCR) as described. […]

[2] = tested on: HCV genotype 1b (CG1b) in FH-CG1bRbz cells; test: Effect of PKR and Jak2 inhibitor on intracellular HCV RNA in FH-CG1bRbz cells, qRT-PCR; settings: C5 1 μM or Jak2 inhibitor II 10 and 50 μM, 48 or 96 hr incubation
Description: (§2) Cg1bRbz cells were treated with C5 (1 μM) or Jak2 inhibitor II (10 and 50 μM) for 48 or 96 hrs and analyzed for intracellular HCV RNAs by qRT-PCR. Huh7 cells transfected with JFH1 RNA were also used as a control. Bottom right—Huh7 cells were inoculated with virus samples prepared from control and Jak2 inhibitor II-treated later passage FH cell culture medium and analyzed for HCV RNA after 48 hrs by qRT-PCR.
HCV RNA was quantified by quantitative reverse transcriptase polymerase chain reaction (qRT-PCR) as described. Intracellular HCV RNA levels were normalized by glyceraldehydes 3-phosphate dehydrogenase mRNA content. Standard curves were generated using in vitro-transcribed HCV RNA's. Control reactions containing no reverse transcriptase were also carried out as controls. HCV protein levels were visualized by immunofluorescence staining followed by confocal microscopy. […]
(§3) It was then examined whether suppressing the hepatocyte innate immunity by inhibiting Jak/Stat pathway and/or PKR could increase the HCV titer in Applicants' FH cell clones and therefore, increase the infectivity of CG1b. HCV RNA level was analyzed in FH-CG1 bRbz cells after 48 or 96 hr incubation with C5, an inhibitor of PKR, or Jak2 Inhibitor II.

[3] = tested on: JFH1 (HCV genotype 2a) in Huh7 cells; test: Effect of PKR and Jak2 inhibitor on intracellular HCV RNA in Huh7 cells transfected with JFH1 RNA, qRT-PCR; settings: C5 1 μM or Jak2 inhibitor II 10 and 50 μM, 48 or 96 hrs
Description: as §2
(§4) Huh7 human hepatoma cells were transfected with in vitro-transcribed JFH1 RNA and cultured, as previously described (Choi et al. (2004) Hepatology 39:91-9). Telomerase-reconstituted primary human hepatocytes were transfected with pEF-CG1 bRbz/Neo, pEF-CG1 bGNDRbz/Neo, or control EF-driven vector alone as described for Huh7, and cell clones that are stably transfected with these constructs were selected and maintained in G418-containing medium (Invitrogen) (Wege et al. (2004) Gastroenterology 124:432-44). […]
as §1, §3

HCV genotype 1b (CG1b) = test: HCV infectivity of medium from Jak2 inhibitor II-treated FH-CG1bRbz cells inoculated on Huh7 cells, HCV RNA by qRT-PCR; settings: HCV RNA after 48 hrs, later passage FH cell culture medium
Description: as §2, §4, §1, §3

Compound	HCV titer (HCV RNA) in CG1b-infected Huh7 cells [1]	HCV titer (HCV RNA) in CG1b-infected Huh7 cells ([1]; listed as interferon alpha)	intracellular HCV RNA in FH-CG1bRbz cells [2]	intracellular HCV RNA in Huh7 cells transfected with JFH1 RNA [3]	HCV infectivity of medium from Jak2 inhibited FH-CG1bRbz cells compared to medium from control cells (HCV genotype 1b (CG1b))
interferon alpha [IFNα]	decreased HCV titer	decreased			
BrC1C(Br)C(Br)C(Br)C(Br)C1Br (centres unmarked) [Jak2 Inhibitor II]			intracellular HCV RNA increased	an increase in the intracellular HCV RNA	increased only modestly
